Laboratory results from patent US10040838B2, “CRHR2 peptide agonists and uses thereof” (JANSSEN PHARMACEUTICA NV, priority 2008, dated 2018).
Residues, ends and D or L forms follow the SMILES beside them. *: point of attachment. Succinimide(1-Et,3-yl) = CCN1C(=O)CC(*)C1=O

Molecular target: T1, human CRHR2 (Homo sapiens, UniProt Q13324)
T1 construct: expressed in transfected cells
T1 sequence (Q13324 1-411): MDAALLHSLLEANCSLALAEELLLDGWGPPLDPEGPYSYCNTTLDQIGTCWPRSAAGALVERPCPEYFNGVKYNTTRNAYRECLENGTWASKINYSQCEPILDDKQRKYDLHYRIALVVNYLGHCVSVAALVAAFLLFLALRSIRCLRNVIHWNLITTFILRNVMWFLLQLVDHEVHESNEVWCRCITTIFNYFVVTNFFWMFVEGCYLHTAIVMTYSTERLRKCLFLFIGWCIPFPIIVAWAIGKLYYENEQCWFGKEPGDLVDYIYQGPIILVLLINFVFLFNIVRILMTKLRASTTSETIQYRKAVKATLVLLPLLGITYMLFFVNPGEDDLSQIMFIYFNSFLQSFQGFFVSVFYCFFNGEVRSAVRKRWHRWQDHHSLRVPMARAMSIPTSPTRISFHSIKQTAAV
Assay: cAMP assay in h-CRHR2 transfected SK-N-MC cells
Type: cell-based
Settings: Table 13; h-SCP control pA50 minus test compound pA50 within same assay batch
Experimental: The concentration required for 50% maximum effect (A50) was 0.4 nM.
Human CRHR1 (accession number X72304) or CRHR2 (accession number U34587) were cloned into pcDNA3.1/Zeo expression vector and stably transfected into SK-N-MC cells by electroporation. Cells were maintained in MEM w/Earl's Salt with 10% FBS, 50 I.U. penicillin, 50 μg/ml streptomycin, 2 mM L-glutamine, 1 mM sodium pyruvate and 0.1 mM nonessential amino acids, 600 μg/ml G418. Cells were grown at 37° C. in 5% CO2.
Cells were plated in 96-well tissue culture dishes (Biocoat from BD Biosciences) overnight at 50,000 cell/well. Cells were washed with PBS then resuspended in DMEM F-12 without phenol red, containing 10 μM isobutylmethylxanthine (IBMX). Cells were incubated with the peptides at concentrations ranging from 1 pM to 10 μM for 60 min at 37° Celsius. […] Forskolin (10 μM), a direct stimulant of adenylate cyclase, was used as positive control. The assays were stopped by the addition of 0.5 M HCl and mixing by orbital rotation for 2 h at 4° Celsius.
To assess the activity of the inventive peptide at the CRHR2, an intracellular cAMP measurement test using a Flash plate radioactive assay (Catalog No. Cus56088; Perkin Elmer, MA, U.S.A.) was employed.
Transfected SK-N-MC cells were plated in 96-well Biocoat tissue culture dishes (BD Biosciences, San Jose, Calif., U.S.A) overnight at 50,000 cell/well. Cells were first washed with PBS and then suspended with DMEM/F-12 without phenol red, containing […]. Suspended cells were transferred into a 96-well flash plate coated with scintillant fluid. Cells were incubated with peptides ranging from […], for 60 min, at 37° Celsius. Forskolin at 10 μM was used as positive control. After ligand stimulation, cells were lysed by the addition of 0.5M HCl and mixed by orbital rotation for 2 h at 4° Celsius in order to release intracellular cAMP into the media.
Media containing released intracellular cAMP was transferred to a 96-well flash plate coated with scintillant fluid containing an anti-cAMP antibody. In this assay, intracellular cAMP competes with ^125I-labeled cAMP binding to the antibody. To generate a standard curve, cAMP ranging from 2.5 to 250 pmoles/ml was included in the experiment. [^125I]-cAMP was measured on a TopCount scintillation counter (Perkin Elmer, MA, U.S.A).
Individual agonist concentration-response curve data were fitted to the Hill equation, see formula below, using GraphPad Prism (Graphpad Software, La Jolla, Calif., U.S.A.), to provide estimates of agonist concentration needed to generate one-half maximal response (A50), and the maximal asymptote (α) and Hill slope (nH) parameters. In this equation, [A] is the agonist concentration and E is the measured effect:
For display purposes the mean fitted parameter estimates were used to generate a single E/[A] curve shown superimposed on the mean experimental data. Potency estimates for agonists, pA50, are expressed as the negative logarithm of the midpoint of each curve and listed with their standard error of measurement (SEM). Logarithm base 10 of the agonist dose ratio (Log DR) values were calculated by subtraction of the test compound pA50 value from the corresponding h-SCP (SEQ ID NO:1) control pA50 value within the same assay batch. The SEM values of the Log DR values are given by the square root of the sum of the squared SEM values of the h-SCP (SEQ ID NO:1) control and test compound pA50 values.
Human and rat peptides (see Table 10) were used on the stimulation of h-CRHR1 or h-CRHR2 transfected SK-N-MC cells in the cAMP flash plate assay. Peptides were incubated for 1 hr at 37° Celsius. Curves were calculated using non-linear regression sigmoidal concentration-response analysis calculation in GraphPad Prism. The so obtained pA50 values are shown in Table 11 in addition to literature values. […]

Row | SMILES | Log DR
1 | CC[C@H](C)[C@H](NC(=O)[C@H](CCC(N)=O)NC(=O)[C@H](C)NC(=O)[C@H](CCSC)NC(=O)[C@H](CC(C)C)NC(=O)[C@H](Cc1c[nH]cn1)NC(=O)[C@H](C)NC(=O)[C@H](CC(N)=O)NC(=O)[C@H](C)NC(=O)[C@H](CSC1CC(=O)N(CC)C1=O)NC(=O)[C@H](C)NC(=O)[C@H](CCC(N)=O)NC(=O)[C@H](C)NC(=O)[C@H](CCCNC(=N)N)NC(=O)[C@H](CC(C)C)NC(=O)[C@H](CC(N)=O)NC(=O)[C@H](CCCCN)NC(=O)[C@H](C)NC(=O)[C@H](CCCCN)NC(=O)[C@H](C)NC(=O)[C@@H](NC(=O)[C@H](CC(N)=O)NC(=O)[C@H](Cc1ccccc1)NC(=O)[C@H](CC(C)C)NC(=O)[C@H](CC(C)C)NC(=O)[C@H](CC(N)=O)NC(=O)[C@H](CCSC)NC(=O)[C@@H](NC(=O)[C@H](CC(N)=O)NC(=O)[C@@H](NC(=O)[C@@H]1CCCN1C(=O)[C@@H](NC(=O)[C@H](CC(=O)O)NC(=O)[C@H](CC(C)C)NC(=O)[C@H](CO)NC(=O)[C@H](CC(C)C)NC(=O)[C@@H](NC(=O)[C@H](Cc1ccccc1)NC(=O)[C@H](CCCCN)NC(=O)[C@@H](N)[C@@H](C)O)[C@@H](C)O)C(C)C)[C@@H](C)O)[C@@H](C)CC)[C@@H](C)CC)C(N)=O (stereo partly shown) [SEQ ID NO: 46, TKFTLSLDVPTNIMNLLFNIAKAKNLRAQAC(-NES)ANAH LMAQI-NH2] (H-TKFTLSLDVPTNIMNLLFNIAKAKNLRAQAC(Succinimide(1-Et,3-yl))ANAHLMAQI-NH2; N-terminus assumed) | 0.04
2 | CC[C@H](C)[C@H](NC(=O)[C@H](CCC(N)=O)NC(=O)[C@H](C)NC(=O)[C@H](CCSC)NC(=O)[C@H](CC(C)C)NC(=O)[C@H](Cc1c[nH]cn1)NC(=O)[C@H](C)NC(=O)[C@H](CC(N)=O)NC(=O)[C@H](C)NC(=O)[C@H](C)NC(=O)[C@H](C)NC(=O)[C@H](CCC(N)=O)NC(=O)[C@H](CSC1CC(=O)N(CC)C1=O)NC(=O)[C@H](CCCNC(=N)N)NC(=O)[C@H](CC(C)C)NC(=O)[C@H](CC(N)=O)NC(=O)[C@H](CCCCN)NC(=O)[C@H](C)NC(=O)[C@H](CCCCN)NC(=O)[C@H](C)NC(=O)[C@@H](NC(=O)[C@H](CC(N)=O)NC(=O)[C@H](Cc1ccccc1)NC(=O)[C@H](CC(C)C)NC(=O)[C@H](CC(C)C)NC(=O)[C@H](CC(N)=O)NC(=O)[C@H](CCSC)NC(=O)[C@@H](NC(=O)[C@H](CC(N)=O)NC(=O)[C@@H](NC(=O)[C@@H]1CCCN1C(=O)[C@@H](NC(=O)[C@H](CC(=O)O)NC(=O)[C@H](CC(C)C)NC(=O)[C@H](CO)NC(=O)[C@H](CC(C)C)NC(=O)[C@@H](NC(=O)[C@H](Cc1ccccc1)NC(=O)[C@H](CCCCN)NC(=O)[C@@H](N)[C@@H](C)O)[C@@H](C)O)C(C)C)[C@@H](C)O)[C@@H](C)CC)[C@@H](C)CC)C(N)=O (stereo partly shown) [SEQ ID NO: 47, TKFTLSLDVPTNIMNLLFNIAKAKNLRC(-NES)QA AANAH LMAQI-NH2] (H-TKFTLSLDVPTNIMNLLFNIAKAKNLRC(Succinimide(1-Et,3-yl))QAAANAHLMAQI-NH2; N-terminus assumed) | −0.03
3 | CC[C@H](C)[C@H](NC(=O)[C@H](CCC(N)=O)NC(=O)[C@H](C)NC(=O)[C@H](CCSC)NC(=O)[C@H](CC(C)C)NC(=O)[C@H](Cc1c[nH]cn1)NC(=O)[C@H](C)NC(=O)[C@H](CC(N)=O)NC(=O)[C@H](C)NC(=O)[C@H](C)NC(=O)[C@H](C)NC(=O)[C@H](CCC(N)=O)NC(=O)[C@H](C)NC(=O)[C@H](CCCNC(=N)N)NC(=O)[C@H](CSC1CC(=O)N(CC)C1=O)NC(=O)[C@H](CC(N)=O)NC(=O)[C@H](CCCCN)NC(=O)[C@H](C)NC(=O)[C@H](CCCCN)NC(=O)[C@H](C)NC(=O)[C@@H](NC(=O)[C@H](CC(N)=O)NC(=O)[C@H](Cc1ccccc1)NC(=O)[C@H](CC(C)C)NC(=O)[C@H](CC(C)C)NC(=O)[C@H](CC(N)=O)NC(=O)[C@H](CCSC)NC(=O)[C@@H](NC(=O)[C@H](CC(N)=O)NC(=O)[C@@H](NC(=O)[C@@H]1CCCN1C(=O)[C@@H](NC(=O)[C@H](CC(=O)O)NC(=O)[C@H](CC(C)C)NC(=O)[C@H](CO)NC(=O)[C@H](CC(C)C)NC(=O)[C@@H](NC(=O)[C@H](Cc1ccccc1)NC(=O)[C@H](CCCCN)NC(=O)[C@@H](N)[C@@H](C)O)[C@@H](C)O)C(C)C)[C@@H](C)O)[C@@H](C)CC)[C@@H](C)CC)C(N)=O (stereo partly shown) [SEQ ID NO: 48, TKFTLSLDVPTNIMNLLFNIAKAKNC(-NES)RAQA AANAH LMAQI-NH2] (H-TKFTLSLDVPTNIMNLLFNIAKAKNC(Succinimide(1-Et,3-yl))RAQAAANAHLMAQI-NH2; N-terminus assumed) | 0.03
4 | CC[C@H](C)[C@H](NC(=O)[C@H](CCC(N)=O)NC(=O)[C@H](C)NC(=O)[C@H](CCSC)NC(=O)[C@H](CC(C)C)NC(=O)[C@H](Cc1c[nH]cn1)NC(=O)[C@H](C)NC(=O)[C@H](CC(N)=O)NC(=O)[C@H](C)NC(=O)[C@H](C)NC(=O)[C@H](C)NC(=O)[C@H](CCC(N)=O)NC(=O)[C@H](C)NC(=O)[C@H](CCCNC(=N)N)NC(=O)[C@H](CC(C)C)NC(=O)[C@H](CSC1CC(=O)N(CC)C1=O)NC(=O)[C@H](CCCCN)NC(=O)[C@H](C)NC(=O)[C@H](CCCCN)NC(=O)[C@H](C)NC(=O)[C@@H](NC(=O)[C@H](CC(N)=O)NC(=O)[C@H](Cc1ccccc1)NC(=O)[C@H](CC(C)C)NC(=O)[C@H](CC(C)C)NC(=O)[C@H](CC(N)=O)NC(=O)[C@H](CCSC)NC(=O)[C@@H](NC(=O)[C@H](CC(N)=O)NC(=O)[C@@H](NC(=O)[C@@H]1CCCN1C(=O)[C@@H](NC(=O)[C@H](CC(=O)O)NC(=O)[C@H](CC(C)C)NC(=O)[C@H](CO)NC(=O)[C@H](CC(C)C)NC(=O)[C@@H](NC(=O)[C@H](Cc1ccccc1)NC(=O)[C@H](CCCCN)NC(=O)[C@@H](N)[C@@H](C)O)[C@@H](C)O)C(C)C)[C@@H](C)O)[C@@H](C)CC)[C@@H](C)CC)C(N)=O (stereo partly shown) [SEQ ID NO: 49, TKFTLSLDVPTNIMNLLFNIAKAKC(-NES) LRAQA AANAH LMAQI-NH2] (H-TKFTLSLDVPTNIMNLLFNIAKAKC(Succinimide(1-Et,3-yl))LRAQAAANAHLMAQI-NH2; N-terminus assumed) | 0.11
